Source: patent US9550792B2, “Polycyclic substituted pyrazole kinase activity inhibitors and use thereof” (priority 2013, dated 2017)
Like-named read-outs stand apart in the source and are kept apart here.

How the values were obtained:
Assay type in all cases: biochemical
[1] = biological target: T1, CDK2/A (Homo sapiens, UniProt P24941); assay: Inhibitory activity to CDK2 (FRET); details: read-out: CDK2 inhibition % (1 × 10^−6 mol/L)
T1 construct: purchased
Outline: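 FRET-based kinase assay using CDK2/cyclin A with peptide substrate in HEPES pH 7.5 buffer (MgCl2, BRIJ-35, EDTA). The kinase reaction ran 1 h, followed by development reagent for 1 h and a stop step. Inhibition calculated relative to phospho-peptide (100%) and ATP-free (0%) phosphorylation controls.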

[2] = biological target: T2, Aurora A (Homo sapiens, UniProt O14965); assay: Inhibitory activity to Aurora A (FRET); details: read-out: Aurora A inhibition % (1 × 10^−6 mol/L)
T2 construct: purchased
T2 sequence (O14965 1-403): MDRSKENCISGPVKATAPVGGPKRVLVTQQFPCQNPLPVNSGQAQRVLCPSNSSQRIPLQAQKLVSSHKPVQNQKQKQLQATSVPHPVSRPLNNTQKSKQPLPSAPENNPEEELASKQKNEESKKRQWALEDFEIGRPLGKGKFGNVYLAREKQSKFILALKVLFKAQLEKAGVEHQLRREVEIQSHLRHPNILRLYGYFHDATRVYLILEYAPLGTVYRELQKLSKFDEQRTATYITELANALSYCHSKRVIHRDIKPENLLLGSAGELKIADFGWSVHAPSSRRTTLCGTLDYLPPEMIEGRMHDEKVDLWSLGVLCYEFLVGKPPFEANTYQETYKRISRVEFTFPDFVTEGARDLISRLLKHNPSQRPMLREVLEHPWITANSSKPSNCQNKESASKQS
Outline: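 FRET kinase assay of Aurora A with peptide substrate in HEPES pH 7.5, BRIJ-35, MgCl2, EDTA; 1 h reaction, then 1 h development before stop. Ex 400 nm, emission 445 nm (coumarin) and 520 nm (fluorescein); 0% and 100% phosphorylation controls set inhibition scale.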

[3] = biological target: CDK1/cyclin A (Homo sapiens, UniProt P06493); assay: Kinase IC50, 33P labeled isotope method
[4] = biological target: CDK1/cyclin B (Homo sapiens, UniProt P06493); assay: Kinase IC50, 33P labeled isotope method
Chain of CDK1/cyclin B (P06493 4-287 limits assumed): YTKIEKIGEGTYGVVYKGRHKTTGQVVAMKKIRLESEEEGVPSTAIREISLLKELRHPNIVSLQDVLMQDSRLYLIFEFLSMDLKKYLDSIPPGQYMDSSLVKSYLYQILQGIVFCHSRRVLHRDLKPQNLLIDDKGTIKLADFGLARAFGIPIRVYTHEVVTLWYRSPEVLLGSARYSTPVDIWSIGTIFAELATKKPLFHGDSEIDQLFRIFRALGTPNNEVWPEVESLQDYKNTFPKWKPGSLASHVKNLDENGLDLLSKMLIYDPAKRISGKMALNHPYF
Chain of CDK1/cyclin B (P14635 whole entry partner): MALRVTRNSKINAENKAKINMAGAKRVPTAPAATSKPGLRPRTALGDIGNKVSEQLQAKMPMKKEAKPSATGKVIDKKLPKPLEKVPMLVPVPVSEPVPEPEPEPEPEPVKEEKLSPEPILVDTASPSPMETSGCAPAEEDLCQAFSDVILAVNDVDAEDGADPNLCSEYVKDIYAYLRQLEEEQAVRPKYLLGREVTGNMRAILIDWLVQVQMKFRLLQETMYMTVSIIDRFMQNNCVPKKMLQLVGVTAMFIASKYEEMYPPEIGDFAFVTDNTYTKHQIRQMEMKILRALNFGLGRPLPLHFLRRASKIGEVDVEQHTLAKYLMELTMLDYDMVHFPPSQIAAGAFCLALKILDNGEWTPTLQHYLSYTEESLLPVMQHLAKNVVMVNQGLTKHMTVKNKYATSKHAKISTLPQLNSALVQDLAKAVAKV

[5] = biological target: CDK1/cyclin E (Homo sapiens, UniProt P06493); assay: Kinase IC50, 33P labeled isotope method
Chain of CDK1/cyclin E (P06493 4-287 limits assumed): as the sequence (P06493 4-287 limits assumed) above
Chain of CDK1/cyclin E (P24864 whole entry partner): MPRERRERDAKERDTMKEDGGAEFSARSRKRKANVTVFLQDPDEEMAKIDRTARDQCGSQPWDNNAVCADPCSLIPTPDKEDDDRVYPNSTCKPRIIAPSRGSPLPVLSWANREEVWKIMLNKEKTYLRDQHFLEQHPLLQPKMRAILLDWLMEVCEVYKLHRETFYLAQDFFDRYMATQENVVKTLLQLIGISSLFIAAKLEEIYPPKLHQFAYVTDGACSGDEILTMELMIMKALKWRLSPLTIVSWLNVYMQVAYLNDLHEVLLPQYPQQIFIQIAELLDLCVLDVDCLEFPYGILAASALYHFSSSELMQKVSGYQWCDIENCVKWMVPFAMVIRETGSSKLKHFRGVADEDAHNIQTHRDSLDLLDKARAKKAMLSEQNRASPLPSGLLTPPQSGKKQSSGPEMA

[6] = biological target: CDK2/cyclin A (Homo sapiens, UniProt P24941); assay: Kinase IC50, 33P labeled isotope method
[7] = biological target: CDK2/Cyclin A1 (Homo sapiens, UniProt P24941); assay: Kinase IC50, 33P labeled isotope method
[8] = biological target: CDK3/cyclin E (Homo sapiens, UniProt Q00526); assay: Kinase IC50, 33P labeled isotope method
[9] = biological target: CDK4/cyclin D1 (Homo sapiens, UniProt P11802); assay: Kinase IC50, 33P labeled isotope method
[10] = biological target: CDK5/p35 (Homo sapiens, UniProt Q00535); assay: Kinase IC50, 33P labeled isotope method
Chain of CDK5/p35 (Q00535 4-286 limits assumed): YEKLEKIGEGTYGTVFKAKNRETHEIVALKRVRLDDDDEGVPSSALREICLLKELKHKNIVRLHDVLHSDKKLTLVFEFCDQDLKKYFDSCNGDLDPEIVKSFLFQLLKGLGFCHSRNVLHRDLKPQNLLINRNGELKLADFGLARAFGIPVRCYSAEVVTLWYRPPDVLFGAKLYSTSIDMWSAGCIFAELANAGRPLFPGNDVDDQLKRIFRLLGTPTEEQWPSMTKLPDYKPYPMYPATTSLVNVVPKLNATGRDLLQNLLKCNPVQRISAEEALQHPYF
Chain of CDK5/p35 (Q15078 whole entry partner): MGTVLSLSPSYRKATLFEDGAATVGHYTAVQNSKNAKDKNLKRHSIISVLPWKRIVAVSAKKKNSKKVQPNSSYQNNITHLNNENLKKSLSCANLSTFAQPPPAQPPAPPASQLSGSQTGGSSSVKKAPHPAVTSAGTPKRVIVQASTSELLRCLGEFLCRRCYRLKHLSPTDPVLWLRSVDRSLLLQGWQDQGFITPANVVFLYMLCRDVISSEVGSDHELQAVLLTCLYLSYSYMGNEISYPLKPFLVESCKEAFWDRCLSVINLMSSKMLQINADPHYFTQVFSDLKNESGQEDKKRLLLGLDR

[11] = biological target: CDK7/cyclin H (Homo sapiens, UniProt P50613); assay: Kinase IC50, 33P labeled isotope method
Chain of CDK7/cyclin H (P50613 12-295 limits assumed): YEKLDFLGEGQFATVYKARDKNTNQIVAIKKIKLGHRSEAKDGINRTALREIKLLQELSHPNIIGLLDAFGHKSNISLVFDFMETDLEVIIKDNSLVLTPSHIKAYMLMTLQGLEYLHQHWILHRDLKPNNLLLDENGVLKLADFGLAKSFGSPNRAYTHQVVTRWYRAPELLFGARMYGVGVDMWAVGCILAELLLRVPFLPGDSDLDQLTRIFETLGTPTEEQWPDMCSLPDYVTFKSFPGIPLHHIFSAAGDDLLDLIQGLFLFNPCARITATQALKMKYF
Chain of CDK7/cyclin H (P51946 whole entry partner): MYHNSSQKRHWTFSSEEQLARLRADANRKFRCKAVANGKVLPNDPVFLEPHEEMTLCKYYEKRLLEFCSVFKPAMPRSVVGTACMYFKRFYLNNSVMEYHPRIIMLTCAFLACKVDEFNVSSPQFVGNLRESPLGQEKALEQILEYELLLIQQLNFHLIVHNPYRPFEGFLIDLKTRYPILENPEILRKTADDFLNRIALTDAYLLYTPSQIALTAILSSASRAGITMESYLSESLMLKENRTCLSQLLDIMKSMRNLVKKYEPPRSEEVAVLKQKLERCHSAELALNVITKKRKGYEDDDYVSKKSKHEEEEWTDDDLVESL
Chain of CDK7/cyclin H (P51948 whole entry partner): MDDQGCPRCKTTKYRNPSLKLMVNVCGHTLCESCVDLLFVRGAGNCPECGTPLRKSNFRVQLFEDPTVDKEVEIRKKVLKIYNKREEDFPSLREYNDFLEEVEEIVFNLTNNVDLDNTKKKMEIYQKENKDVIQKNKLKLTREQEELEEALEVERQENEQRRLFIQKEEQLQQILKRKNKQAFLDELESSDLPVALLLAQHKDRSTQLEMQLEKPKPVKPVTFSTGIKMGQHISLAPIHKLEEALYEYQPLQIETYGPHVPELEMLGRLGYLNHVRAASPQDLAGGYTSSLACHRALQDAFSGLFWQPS

[12] = biological target: T3, ERK7/MAPK15 (Homo sapiens, UniProt Q8TD08); assay: Kinase IC50, 33P labeled isotope method
T3 sequence (Q8TD08 13-304 limits assumed): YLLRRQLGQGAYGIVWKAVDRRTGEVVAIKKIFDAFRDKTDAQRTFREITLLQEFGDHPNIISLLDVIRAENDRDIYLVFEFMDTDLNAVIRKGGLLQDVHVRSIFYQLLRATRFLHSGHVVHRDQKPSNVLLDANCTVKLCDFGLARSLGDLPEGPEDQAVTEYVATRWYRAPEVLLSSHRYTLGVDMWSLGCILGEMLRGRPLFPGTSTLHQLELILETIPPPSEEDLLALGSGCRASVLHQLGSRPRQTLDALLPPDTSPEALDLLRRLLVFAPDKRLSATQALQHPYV

[13] = biological target: FGFR1 (Homo sapiens, UniProt P11362); assay: Kinase IC50, 33P labeled isotope method
Chain of FGFR1 (P11362 478-767 limits assumed): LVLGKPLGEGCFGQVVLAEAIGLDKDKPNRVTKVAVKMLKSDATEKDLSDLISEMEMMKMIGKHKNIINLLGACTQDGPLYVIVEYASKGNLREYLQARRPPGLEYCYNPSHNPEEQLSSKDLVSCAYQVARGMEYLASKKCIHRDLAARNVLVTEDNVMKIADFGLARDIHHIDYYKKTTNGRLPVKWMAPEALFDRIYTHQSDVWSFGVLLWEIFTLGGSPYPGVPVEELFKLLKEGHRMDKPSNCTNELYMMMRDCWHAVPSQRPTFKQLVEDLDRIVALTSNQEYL

[14] = biological target: FGFR2 (Homo sapiens, UniProt P21802); assay: Kinase IC50, 33P labeled isotope method
Chain of FGFR2 (P21802 481-770 limits assumed): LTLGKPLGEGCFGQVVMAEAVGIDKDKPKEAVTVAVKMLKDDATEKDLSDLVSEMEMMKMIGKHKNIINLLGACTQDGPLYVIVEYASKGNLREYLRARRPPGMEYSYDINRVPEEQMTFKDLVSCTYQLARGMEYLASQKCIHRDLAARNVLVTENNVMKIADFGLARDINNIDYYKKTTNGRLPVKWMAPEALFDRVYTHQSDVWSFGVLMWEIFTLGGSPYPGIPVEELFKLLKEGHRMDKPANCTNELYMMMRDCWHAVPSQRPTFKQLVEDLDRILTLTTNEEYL

[15] = biological target: FGFR3 (Homo sapiens, UniProt P22607); assay: Kinase IC50, 33P labeled isotope method; details: 20 μM ATP
[16] = biological target: T4, FLT1/VEGFR1 (Homo sapiens, UniProt P17948); assay: Kinase IC50, 33P labeled isotope method
T4 sequence (P17948 827-1158 limits assumed): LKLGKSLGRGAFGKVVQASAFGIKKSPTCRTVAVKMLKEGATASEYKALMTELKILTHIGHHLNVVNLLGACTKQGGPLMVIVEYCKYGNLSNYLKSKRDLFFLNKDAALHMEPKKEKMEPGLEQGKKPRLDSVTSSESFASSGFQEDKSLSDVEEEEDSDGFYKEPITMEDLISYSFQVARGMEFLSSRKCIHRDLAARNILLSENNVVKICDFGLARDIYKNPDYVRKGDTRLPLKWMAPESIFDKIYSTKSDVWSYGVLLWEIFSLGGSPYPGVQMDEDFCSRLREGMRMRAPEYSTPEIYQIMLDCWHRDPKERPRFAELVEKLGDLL

[17] = biological target: JAK2 (Homo sapiens, UniProt O60674); assay: Kinase IC50, 33P labeled isotope method
Chain of JAK2 (O60674 849-1124 limits assumed): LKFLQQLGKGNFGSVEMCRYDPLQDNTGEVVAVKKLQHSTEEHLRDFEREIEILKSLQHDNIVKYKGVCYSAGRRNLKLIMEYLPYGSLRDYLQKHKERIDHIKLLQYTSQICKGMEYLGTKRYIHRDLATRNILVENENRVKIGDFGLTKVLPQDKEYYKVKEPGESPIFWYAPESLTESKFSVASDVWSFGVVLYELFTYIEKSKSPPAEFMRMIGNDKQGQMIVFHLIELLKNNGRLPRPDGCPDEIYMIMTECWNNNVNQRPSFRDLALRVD

[18] = biological target: JNK1 (Homo sapiens, UniProt P45983); assay: Kinase IC50, 33P labeled isotope method
Chain of JNK1 (P45983 26-321 limits assumed): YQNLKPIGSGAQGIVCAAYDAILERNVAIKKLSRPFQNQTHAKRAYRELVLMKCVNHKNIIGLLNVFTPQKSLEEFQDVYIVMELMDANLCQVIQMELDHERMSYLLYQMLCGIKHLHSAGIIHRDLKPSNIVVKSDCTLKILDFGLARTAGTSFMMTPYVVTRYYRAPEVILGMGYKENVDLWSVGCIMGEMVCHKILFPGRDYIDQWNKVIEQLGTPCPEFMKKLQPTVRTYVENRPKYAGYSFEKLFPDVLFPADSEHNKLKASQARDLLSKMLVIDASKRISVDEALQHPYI

[19] = biological target: JNK2 (Homo sapiens, UniProt P45984); assay: Kinase IC50, 33P labeled isotope method
Chain of JNK2 (P45984 26-321 limits assumed): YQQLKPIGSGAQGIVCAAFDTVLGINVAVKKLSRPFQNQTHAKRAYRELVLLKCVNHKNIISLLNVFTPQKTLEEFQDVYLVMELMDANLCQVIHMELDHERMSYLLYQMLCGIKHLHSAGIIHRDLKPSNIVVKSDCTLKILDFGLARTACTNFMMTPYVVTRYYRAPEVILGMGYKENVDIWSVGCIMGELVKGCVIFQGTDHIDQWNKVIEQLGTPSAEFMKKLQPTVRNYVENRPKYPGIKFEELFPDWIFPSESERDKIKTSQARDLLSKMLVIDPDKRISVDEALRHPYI

[20] = biological target: KDR/VEGFR2 (Homo sapiens, UniProt P35968); assay: Kinase IC50, 33P labeled isotope method
Chain of KDR/VEGFR2 (P35968 834-1162 limits assumed): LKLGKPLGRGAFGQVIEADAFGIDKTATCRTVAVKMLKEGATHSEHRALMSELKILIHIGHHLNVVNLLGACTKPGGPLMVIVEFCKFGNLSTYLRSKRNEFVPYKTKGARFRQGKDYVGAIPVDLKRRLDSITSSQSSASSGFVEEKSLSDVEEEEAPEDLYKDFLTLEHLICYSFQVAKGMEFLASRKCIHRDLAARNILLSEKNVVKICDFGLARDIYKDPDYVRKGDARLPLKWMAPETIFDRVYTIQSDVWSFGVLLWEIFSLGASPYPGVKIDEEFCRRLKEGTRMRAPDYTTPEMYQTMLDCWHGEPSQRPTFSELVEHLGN

[21] = 20 μM ATP, read-out: IC50* CDK1/cyclin A
[22] = 20 μM ATP, read-out: IC50* CDK1/cyclin B
[23] = 20 μM ATP, read-out: IC50* CDK1/cyclin E
[24] = 20 μM ATP, read-out: IC50* CDK2/cyclin A
[25] = 20 μM ATP, read-out: IC50* CDK2/Cyclin A1
[26] = 20 μM ATP, read-out: IC50* CDK3/cyclin E
[27] = 20 μM ATP, read-out: IC50* CDK4/cyclin D1
[28] = 20 μM ATP, read-out: IC50* CDK5/p35
[29] = 20 μM ATP, read-out: IC50* CDK7/cyclin H
[30] = 20 μM ATP, read-out: IC50* ERK7/MAPK15
[31] = 20 μM ATP, read-out: IC50* FGFR1
[32] = 20 μM ATP, read-out: IC50* FGFR2
[33] = 20 μM ATP, read-out: IC50* FLT1/VEGFR1
[34] = 20 μM ATP, read-out: IC50* JAK2
[35] = 20 μM ATP, read-out: IC50* JNK1
[36] = 20 μM ATP, read-out: IC50* JNK2
[37] = 20 μM ATP, read-out: IC50* KDR/VEGFR2

## O=C(Nc1ccc(CN2CCOCC2)cc1)c1n[nH]cc1Nc1ncnc2sccc12 [Compound I-2, 4-(4-thieno[2,3-d]pyrimidinylamino)-N-(4-((4-morpholinyl)methyl)phenyl)-1H-3-pyrazolecarboxamide]
[1]
  inhibition at 1 µM: 46.6%
[2]
  inhibition at 1 µM: 52.2%

## Cc1cc2c(Nc3c[nH]nc3C(=O)Nc3ccc(CN4CCN(C)CC4)cc3)nccc2s1 [Compound I-27, 4-(4-(2-methylthieno[3,2-c]pyridyl)amino)-N-(4-((4-methyl-1-piperazinyl)methyl)phenyl)-1H-3-pyrazolecarboxamide]
[1]
  inhibition at 1 µM: 72.6%
[2]
  inhibition at 1 µM: 67.8%
[3]; [21]
  IC50: 164 nM
[4]; [22]
  IC50: 91 nM
[5]; [23]
  IC50: 100 nM
[6]; [24]
  IC50: 16 nM
[7]; [25]
  IC50: 10 nM
[8]; [26]
  IC50: 198 nM
[9]; [27]
  IC50: 7 nM
[10]; [28]
  IC50: 15 nM
[11]; [29]
  IC50: 575 nM
[12]; [30]
  IC50: 8 nM
[13]; [31]
  IC50: 316 nM
[14]; [32]
  IC50: 242 nM
[15]
  IC50: 841 nM
[16]; [33]
  IC50: 22 nM
[17]; [34]
  IC50: 826 nM
[18]; [35]
  IC50: 1330 nM
[19]; [36]
  IC50: 1380 nM
[20]; [37]
  IC50: 38 nM

## Cc1cc2c(Nc3c[nH]nc3C(=O)Nc3ccc(CN4CCN(C)CC4)cc3)ncnc2s1 [Compound I-3, 4-(4-(6-methylthieno[2,3-d]pyrimidinyl)amino)-N-(4-((4-methyl-1-piperazinyl)methyl)phenyl)-1H-3-pyrazolecarboxamide]
[1]
  inhibition at 1 µM: 62.5%
[2]
  inhibition at 1 µM: 75.2%
[3]; [21]
  IC50: 142 nM
[4]; [22]
  IC50: 79 nM
[5]; [23]
  IC50: 87 nM
[6]; [24]
  IC50: 14 nM
[7]; [25]
  IC50: 9 nM
[8]; [26]
  IC50: 171 nM
[9]; [27]
  IC50: 6 nM
[10]; [28]
  IC50: 13 nM
[11]; [29]
  IC50: 495 nM
[12]; [30]
  IC50: 7 nM
[13]; [31]
  IC50: 274 nM
[14]; [32]
  IC50: 210 nM
[15]
  IC50: 723 nM
[16]; [33]
  IC50: 19 nM
[17]; [34]
  IC50: 716 nM
[18]; [35]
  IC50: 1130 nM
[19]; [36]
  IC50: 1170 nM
[20]; [37]
  IC50: 33 nM

## CN1CCN(Cc2ccc(NC(=O)c3n[nH]cc3Nc3ncnc4occc34)cc2)CC1 [Compound I-21, 4-(4-furo[2,3-d]pyrimidinylamino)-N-(4-((4-methyl-1-piperazinyl)methyl)phenyl)-1H-3-pyrazolecarboxamide]
[1]
  inhibition at 1 µM: 66%
[2]
  inhibition at 1 µM: 60.8%
[3]; [21]
  IC50: 173 nM
[4]; [22]
  IC50: 96 nM
[5]; [23]
  IC50: 106 nM
[6]; [24]
  IC50: 17 nM
[7]; [25]
  IC50: 11 nM
[8]; [26]
  IC50: 210 nM
[9]; [27]
  IC50: 7 nM
[10]; [28]
  IC50: 16 nM
[11]; [29]
  IC50: 611 nM
[12]; [30]
  IC50: 8 nM
[13]; [31]
  IC50: 335 nM
[14]; [32]
  IC50: 257 nM
[15]
  IC50: 890 nM
[16]; [33]
  IC50: 24 nM
[17]; [34]
  IC50: 875 nM
[18]; [35]
  IC50: 1430 nM
[19]; [36]
  IC50: 1490 nM
[20]; [37]
  IC50: 41 nM

## CN1CCN(Cc2ccc(NC(=O)c3n[nH]cc3Nc3ncnc4sccc34)cc2)CC1 [Compound I-1, 4-(4-thieno[2,3-d]pyrimidinylamino)-N-(4-((4-methyl-1-piperazinyl)methyl)phenyl)-1H-3-pyrazole carboxamide]
[1]
  inhibition at 1 µM: 70.9%
[2]
  inhibition at 1 µM: 67.9%
[3]
  IC50: 157 nM
[4]; [22]
  IC50: 87 nM
[5]; [23]
  IC50: 96 nM
[6]
  IC50: 15 nM
[7]
  IC50: 9 nM
[8]
  IC50: 190 nM
[9]
  IC50: 6 nM
[10]; [28]
  IC50: 15 nM
[11]; [29]
  IC50: 522 nM
[12]
  IC50: 7 nM
[13]; [31]
  IC50: 304 nM
[14]; [32]
  IC50: 233 nM
[15]
  IC50: 807 nM
[16]
  IC50: 20 nM
[17]; [34]
  IC50: 795 nM
[18]; [35]
  IC50: ≥ 1000 nM
[19]; [36]
  IC50: ≥ 1000 nM
[20]
  IC50: 35 nM

## Cc1cc2c(Nc3c[nH]nc3C(=O)Nc3ccc(CN4CCN(C)CC4)cc3)ncnc2[nH]1 [Compound I-13, 4-(4-(6-methyl-7H-pyrrolo[2,3-d]pyrimidinyl)amino)-N-(4-((4-methyl-1-piperazinyl)methyl)phenyl)-1H-3-pyrazolecarboxamide]
[1]
  inhibition at 1 µM: 67%
[2]
  inhibition at 1 µM: 60.8%
[3]; [21]
  IC50: 158 nM
[4]; [22]
  IC50: 88 nM
[5]; [23]
  IC50: 97 nM
[6]; [24]
  IC50: 15 nM
[7]; [25]
  IC50: 10 nM
[8]; [26]
  IC50: 191 nM
[9]; [27]
  IC50: 8 nM
[10]; [28]
  IC50: 15 nM
[11]; [29]
  IC50: 583 nM
[12]; [30]
  IC50: 8 nM
[13]; [31]
  IC50: 305 nM
[14]; [32]
  IC50: 234 nM
[15]
  IC50: 811 nM
[16]; [33]
  IC50: 23 nM
[17]; [34]
  IC50: 795 nM
[18]; [35]
  IC50: 1550 nM
[19]; [36]
  IC50: 1650 nM
[20]; [37]
  IC50: 39 nM

## CN1CCN(Cc2ccc(NC(=O)c3n[nH]cc3Nc3ncnc4[nH]ccc34)cc2)CC1 [Compound I-11, 4-(4-(7H-pyrrolo[2,3-d]pyrimidinyl)amino)-N-(4-((4-methyl-1-piperazinyl)methyl)phenyl)-1H-3-pyrazolecarboxamide]
[1]
  inhibition at 1 µM: 67.9%
[2]
  inhibition at 1 µM: 64.3%
[3]
  IC50: 128 nM
[4]
  IC50: 71 nM
[5]
  IC50: 78 nM
[6]
  IC50: 13 nM
[7]
  IC50: 8 nM
[8]
  IC50: 155 nM
[9]
  IC50: 6 nM
[10]
  IC50: 12 nM
[11]
  IC50: 471 nM
[12]
  IC50: 7 nM
[13]
  IC50: 247 nM
[14]
  IC50: 189 nM
[15]
  IC50: 657 nM
[16]
  IC50: 19 nM
[17]
  IC50: 644 nM
[18]
  IC50: 1240 nM
[19]
  IC50: 1320 nM
[20]
  IC50: 31 nM
